# From US20210230203A1, “Amphiphilic Kanamycin Compositions and Methods” (priority 2020, published 2021)
# Where two headings read alike, the source gives them in different places.
# Assays:
# [1] = test system: Fusarium graminearum B4-5A; test: microbe, parasite or virus in culture; type: cell-based; conditions: Fusarium graminearum B4-5A
# [2] = test system: S. aureus (ATCC 25923); test: MIC against bacterial strains; type: cell-based
# [3] = test system: Candida albicans 64124; test: MIC against fungal strains (Table 1); type: cell-based
# [4] = test system: E. coli (25922); test: MIC against bacterial strains; type: cell-based
# [5] = test system: Cryptococcus neoformans H99; test: MIC against fungal strains (Table 1); type: cell-based; conditions: Cryptococcus neoformans H99
# [6] = test system: Candida albicans MYA2876; test: MIC against fungal strains (Table 1); type: cell-based; conditions: Candida albicans MYA2876
# [7] = test system: Rhodotorula pilimanae; test: MIC against fungal strains (Table 1); type: cell-based
# [8] = test system: S. aureus (ATCC 43300) MRSA; type: cell-based
# [9] = test system: S. aureus (ATCC 33591) MRSA; type: cell-based
# [10] = test system: P. variatii; test: MIC against filamentous and dimorphic fungi, CLSI M27 & M38 (Table 3); type: cell-based, Paecilomyces variotii; conditions: Paecilomyces variotii, P. variatii MYA-3630, RPMI 0.165M MOPS, 24-72 hours, read-out: Minimum inhibitory concentration 100%
# [11] = test system: Saksenaea sp.; test: as above; type: cell-based, Saksenaea species; conditions: 24-72 hours, read-out: Minimum inhibitory concentration 100%
# [12] = test system: Rhizopus arrhizus; test: as above; type: cell-based; conditions: Rhizopus arrhizus, 24-72 hours, read-out: Minimum inhibitory concentration 100%
# [13] = test system: Apaphysomyces; test: MIC against various species, CLSI M27 & M38 (Table 4); type: cell-based, Apophysomyces; conditions: 24-72 hours, read-out: Minimum inhibitory concentration 100%
# [14] = test system: P. variotil; test: as above; type: cell-based, Paecilomyces variotii; conditions: Paecilomyces variotii, P. variotil QC, RPMI 0.165M MOPS, 24-72 hours, read-out: Minimum inhibitory concentration 100%
Molecule,Minimum inhibitory concentration [1],Minimum inhibitory concentration [2],Minimum inhibitory concentration [3],Minimum inhibitory concentration [4],Minimum inhibitory concentration [5],Minimum inhibitory concentration [6],Minimum inhibitory concentration [7],Minimum inhibitory concentration [8],Minimum inhibitory concentration [9],MIC [10],"MIC ([11]; Saksenaea sp. SK1, RPMI 0.165M MOPS)","MIC ([11]; Saksenaea sp. SK2, RPMI 0.165M MOPS)","MIC ([11]; Saksenaea sp. SK3, RPMI 0.165M MOPS)","MIC ([12]; Rhizopus arrhizus 99-880, RPMI 0.165M MOPS)","MIC ([12]; Rhizopus arrhizus 99-892, RPMI 0.165M MOPS)","MIC ([12]; Rhizopus arrhizus RA1, RPMI 0.165M MOPS)","MIC ([13]; Apaphysomyces APO1, RPMI 0.165M MOPS)","MIC ([13]; Apaphysomyces APO2, RPMI 0.165M MOPS)","MIC ([13]; Apaphysomyces APO3, RPMI 0.165M MOPS)",MIC [14]
CCCCCCCC(=O)NCC1O[C@H](OC2C(N)CC(N)C(OC3O[C@H](CO)C(O)C(N)[C@H]3O)[C@H]2O)C(O)C(O)[C@@H]1O (stereo partly drawn) [KI02],>256 µg/mL,>256 µg/mL,>256 µg/mL,>256 µg/mL,>256 µg/mL,>256 µg/mL,>256 µg/mL,,,,,,,,,,,,,
CCCCCCCCCCCC(=O)NC[C@H]1O[C@H](O[C@H]2[C@H](O)[C@@H](O[C@H]3O[C@H](CO)[C@@H](O)[C@H](N)[C@H]3O)[C@H](N)C[C@@H]2N)[C@H](O)[C@@H](O)[C@@H]1O [KI04],16 µg/mL,32 µg/mL,32 µg/mL,32 µg/mL,8 µg/mL,32 µg/mL,16 µg/mL,128 µg/mL,128 µg/mL,,,,,,,,,,,
Neomycin [reference compound],,2 µg/mL,,2 µg/mL,,,,,,,,,,,,,,,,
NC1CC(N)C(O[C@H]2OC(CNC(=O)CCCc3ccc4ccc5cccc6ccc3c4c56)[C@@H](O)C(O)C2O)[C@H](O)C1OC1O[C@H](CO)C(O)C(N)[C@H]1O (stereo partly drawn) [KI09],16 µg/mL,32 µg/mL,16 µg/mL,128 µg/mL,16 µg/mL,16 µg/mL,16 µg/mL,32 µg/mL,128 µg/mL,,,,,,,,,,,
CCCCCCCCCCCCCC(=O)NCC1O[C@H](OC2C(N)CC(N)C(OC3O[C@H](CO)C(O)C(N)[C@H]3O)[C@H]2O)C(O)C(O)[C@@H]1O (stereo partly drawn) [KI05],8 µg/mL,16 µg/mL,16 µg/mL,64 µg/mL,4 µg/mL,16 µg/mL,4 µg/mL,32 µg/mL,32 µg/mL,,,,,,,,,,,
"CC[C@@H]([C@H](C)O)n1ncn(-c2ccc(N3CCN(c4ccc(OC[C@@H]5CO[C@@](Cn6cncn6)(c6ccc(F)cc6F)C5)cc4)CC3)cc2)c1=O [Posaconazole, reference compound]",,,,,,,,,,≤ 0.03 µg/mL,≤ 0.03 µg/mL,≤ 0.03 µg/mL,0.125 µg/mL,1 µg/mL,0.25 µg/mL,0.25 µg/mL,0.125 µg/mL,0.125 µg/mL,0.25 µg/mL,≤ 0.03 µg/mL
N[C@@H]1[C@@H](O)[C@@H](O[C@@H]2[C@@H](O)[C@H](O[C@H]3O[C@H](CNC(=O)c4cc(-c5ccccc5)nc5ccccc45)[C@@H](O)[C@H](O)[C@H]3O)[C@@H](N)C[C@H]2N)O[C@H](CO)[C@H]1O [KI08],>256 µg/mL,>256 µg/mL,>256 µg/mL,>256 µg/mL,128 µg/mL,>256 µg/mL,256 µg/mL,,,,,,,,,,,,,
